Experimental data reported in US8758816B2, “Compositions comprising azelastine and methods of use thereof” (priority 2004, dated 2014).

System: patients with seasonal allergic rhinitis (SAR)
Test: MP 428 study: individual symptom severity scores (runny nose, itchy nose, sneezing, congestion; 0-3 scale)
Format: in vivo, human
Settings: Intent-to-Treat Population
Procedure: A two-week, randomized, double-blind study, which evaluated the effects of the co-administration of ASTELIN® (azelastine hydrochloride (HCl)) and FLONASE® (fluticasone propionate) compared to either product alone in patients with seasonal allergic rhinitis (SAR) was conducted during the 2006 Texas mountain cedar season. After a 5-day placebo lead-in period, 151 patients with moderate-to-severe allergic rhinitis symptoms were randomized to either: (1) (49 total patients) ASTELIN® (azelastine hydrochloride (HCl)) plus placebo saline nasal spray 2 sprays per nostril, 15 minutes apart, twice daily (AM & PM); (2) (50 total patients) FLONASE® (fluticasone propionate) plus placebo saline nasal spray, 2 sprays per nostril, 15 minutes apart, once daily (AM) and two sessions of placebo saline nasal spray, 2 sprays per nostril, 15 minutes apart (PM); or (3) (52 total patients) the co-administration of ASTELIN® (azelastine hydrochloride (HCl)) 2 sprays per nostril plus FLONASE® (fluticasone propionate) 2 sprays per nostril (AM), 15 minutes apart, and ASTELIN® (azelastine hydrochloride (HCl)) 2 sprays per nostril plus placebo saline nasal spray, 15 minutes apart, (PM) for a 2-week double-blind treatment period.
The primary efficacy variable was the change from baseline in the Total Nasal Symptom Score (TNSS), which comprised sneezing, itchy nose, runny nose, and nasal congestion (individual symptoms scores were assigned a value between 0 and 3, where 0=no symptoms and 3=severe symptoms). This study was not statistically designed to assess the differences between ASTELIN® and FLONASE®.
The results of the clinical trial are summarized and presented in Appendix A hereinbelow and in FIGS. 1-6. […] FIGS. 2-5 show the mean improvement in severity score (0-3 scale) from baseline for the symptoms of runny nose, itchy nose, sneezing and congestion, respectively.

SMILES: CCC(=O)O[C@]1(C(=O)SCF)[C@H](C)C[C@H]2[C@@H]3C[C@H](F)C4=CC(=O)C=C[C@]4(C)[C@@]3(F)[C@@H](O)C[C@@]21C [Fluticasone, fluticasone propionate]
- Percent Change from Baseline in AM and PM Combined Nasal Symptom Score: Congestion, LS Mean (Day 5): −18.74%
- Percent Change from Baseline in AM and PM Combined Nasal Symptom Score: Congestion, Mean (Day 5): −19.38%
- Percent Change from Baseline in AM and PM Combined Nasal Symptom Score: Congestion, Median (Day 5): −14.29%
- Percent Change from Baseline in AM and PM Combined Nasal Symptom Score: Itchy Nose, LS Mean (Day 5): −25.02%
- Percent Change from Baseline in AM and PM Combined Nasal Symptom Score: Itchy Nose, Mean (Day 5): −24.64%
- Percent Change from Baseline in AM and PM Combined Nasal Symptom Score: Itchy Nose, Median (Day 5): −25.00%
- Percent Change from Baseline in AM and PM Combined Nasal Symptom Score: Runny Nose, LS Mean (Day 5): −22.06%
- Percent Change from Baseline in AM and PM Combined Nasal Symptom Score: Runny Nose, Mean (Day 5): −22.31%
- Percent Change from Baseline in AM and PM Combined Nasal Symptom Score: Runny Nose, Median (Day 5): −21.31%
- Percent Change from Baseline in AM and PM Combined Nasal Symptom Score: Sneezing, LS Mean (Day 5): −35.40%
- Percent Change from Baseline in AM and PM Combined Nasal Symptom Score: Sneezing, Mean (Day 5): −34.14%
- Percent Change from Baseline in AM and PM Combined Nasal Symptom Score: Sneezing, Median (Day 5): −33.33%
- Change from Baseline in AM and PM Combined Nasal Symptom Score: Congestion, LS Mean (Day 6): −1.03
- Change from Baseline in AM and PM Combined Nasal Symptom Score: Congestion, Mean (Day 6): −1.10
- Change from Baseline in AM and PM Combined Nasal Symptom Score: Congestion, Median (Day 6): −0.83
- Change from Baseline in AM and PM Combined Nasal Symptom Score: Itchy Nose, LS Mean (Day 6): −1.21
- Change from Baseline in AM and PM Combined Nasal Symptom Score: Itchy Nose, Mean (Day 6): −1.21
- Change from Baseline in AM and PM Combined Nasal Symptom Score: Itchy Nose, Median (Day 6): −1.00
- Change from Baseline in AM and PM Combined Nasal Symptom Score: Runny Nose, LS Mean (Day 6): −1.35
- Change from Baseline in AM and PM Combined Nasal Symptom Score: Runny Nose, Mean (Day 6): −1.35
- Change from Baseline in AM and PM Combined Nasal Symptom Score: Runny Nose, Median (Day 6): −1.00
- Change from Baseline in AM and PM Combined Nasal Symptom Score: Sneezing, LS Mean (Day 6): −1.51
- Change from Baseline in AM and PM Combined Nasal Symptom Score: Sneezing, Mean (Day 6): −1.44
- Change from Baseline in AM and PM Combined Nasal Symptom Score: Sneezing, Median (Day 6): −1.27
- Percent Change from Baseline in AM and PM Combined Nasal Symptom Score: Congestion, LS Mean (Day 6): −19.32%
- Percent Change from Baseline in AM and PM Combined Nasal Symptom Score: Congestion, Mean (Day 6): −20.16%
- Percent Change from Baseline in AM and PM Combined Nasal Symptom Score: Congestion, Median (Day 6): −14.29%
- Percent Change from Baseline in AM and PM Combined Nasal Symptom Score: Itchy Nose, LS Mean (Day 6): −27.12%
- Percent Change from Baseline in AM and PM Combined Nasal Symptom Score: Itchy Nose, Mean (Day 6): −26.87%
- Percent Change from Baseline in AM and PM Combined Nasal Symptom Score: Itchy Nose, Median (Day 6): −24.76%
- Percent Change from Baseline in AM and PM Combined Nasal Symptom Score: Runny Nose, LS Mean (Day 6): −22.60%
- Percent Change from Baseline in AM and PM Combined Nasal Symptom Score: Runny Nose, Mean (Day 6): −22.47%
- Percent Change from Baseline in AM and PM Combined Nasal Symptom Score: Runny Nose, Median (Day 6): −18.64%
- Percent Change from Baseline in AM and PM Combined Nasal Symptom Score: Sneezing, LS Mean (Day 6): −32.10%
- Percent Change from Baseline in AM and PM Combined Nasal Symptom Score: Sneezing, Mean (Day 6): −31.22%
- Percent Change from Baseline in AM and PM Combined Nasal Symptom Score: Sneezing, Median (Day 6): −32.77%
- Change from Baseline in AM and PM Combined Nasal Symptom Score: Congestion, LS Mean (Day 7): −1.03
- Change from Baseline in AM and PM Combined Nasal Symptom Score: Congestion, Mean (Day 7): −1.10
- Change from Baseline in AM and PM Combined Nasal Symptom Score: Congestion, Median (Day 7): −1.08
- Change from Baseline in AM and PM Combined Nasal Symptom Score: Itchy Nose, LS Mean (Day 7): −1.30
- Change from Baseline in AM and PM Combined Nasal Symptom Score: Itchy Nose, Mean (Day 7): −1.27
- Change from Baseline in AM and PM Combined Nasal Symptom Score: Itchy Nose, Median (Day 7): −1.00
- Change from Baseline in AM and PM Combined Nasal Symptom Score: Runny Nose, LS Mean (Day 7): −1.28
- Change from Baseline in AM and PM Combined Nasal Symptom Score: Runny Nose, Mean (Day 7): −1.31
- Change from Baseline in AM and PM Combined Nasal Symptom Score: Runny Nose, Median (Day 7): −1.45
- Change from Baseline in AM and PM Combined Nasal Symptom Score: Sneezing, LS Mean (Day 7): −1.44
- Change from Baseline in AM and PM Combined Nasal Symptom Score: Sneezing, Mean (Day 7): −1.33
- Change from Baseline in AM and PM Combined Nasal Symptom Score: Sneezing, Median (Day 7): −1.20
- Percent Change from Baseline in AM and PM Combined Nasal Symptom Score: Congestion, LS Mean (Day 7): −19.42%
- Percent Change from Baseline in AM and PM Combined Nasal Symptom Score: Congestion, Mean (Day 7): −20.17%
- Percent Change from Baseline in AM and PM Combined Nasal Symptom Score: Congestion, Median (Day 7): −21.31%
- Percent Change from Baseline in AM and PM Combined Nasal Symptom Score: Itchy Nose, LS Mean (Day 7): −27.79%
- Percent Change from Baseline in AM and PM Combined Nasal Symptom Score: Itchy Nose, Mean (Day 7): −26.92%
- Percent Change from Baseline in AM and PM Combined Nasal Symptom Score: Itchy Nose, Median (Day 7): −23.55%
- Percent Change from Baseline in AM and PM Combined Nasal Symptom Score: Runny Nose, LS Mean (Day 7): −18.01%
- Percent Change from Baseline in AM and PM Combined Nasal Symptom Score: Runny Nose, Mean (Day 7): −18.63%
- Percent Change from Baseline in AM and PM Combined Nasal Symptom Score: Runny Nose, Median (Day 7): −28.99%
- Percent Change from Baseline in AM and PM Combined Nasal Symptom Score: Sneezing, LS Mean (Day 7): −31.86%
- Percent Change from Baseline in AM and PM Combined Nasal Symptom Score: Sneezing, Mean (Day 7): −30.14%
- Percent Change from Baseline in AM and PM Combined Nasal Symptom Score: Sneezing, Median (Day 7): −31.32%
- Change from Baseline in AM and PM Combined Nasal Symptom Score: Congestion, LS Mean (Day 8): −0.94
- Change from Baseline in AM and PM Combined Nasal Symptom Score: Congestion, Mean (Day 8): −0.98
- Change from Baseline in AM and PM Combined Nasal Symptom Score: Congestion, Median (Day 8): −0.83
- Change from Baseline in AM and PM Combined Nasal Symptom Score: Itchy Nose, LS Mean (Day 8): −1.33
- Change from Baseline in AM and PM Combined Nasal Symptom Score: Itchy Nose, Mean (Day 8): −1.29
- Change from Baseline in AM and PM Combined Nasal Symptom Score: Itchy Nose, Median (Day 8): −1.15
- Change from Baseline in AM and PM Combined Nasal Symptom Score: Runny Nose, LS Mean (Day 8): −0.95
- Change from Baseline in AM and PM Combined Nasal Symptom Score: Runny Nose, Mean (Day 8): −0.98
- Change from Baseline in AM and PM Combined Nasal Symptom Score: Runny Nose, Median (Day 8): −0.73
- Change from Baseline in AM and PM Combined Nasal Symptom Score: Sneezing, LS Mean (Day 8): −1.41
- Change from Baseline in AM and PM Combined Nasal Symptom Score: Sneezing, Mean (Day 8): −1.29
- Change from Baseline in AM and PM Combined Nasal Symptom Score: Sneezing, Median (Day 8): −1.25
- Percent Change from Baseline in AM and PM Combined Nasal Symptom Score: Congestion, LS Mean (Day 8): −17.55%
- Percent Change from Baseline in AM and PM Combined Nasal Symptom Score: Congestion, Mean (Day 8): −17.88%
- Percent Change from Baseline in AM and PM Combined Nasal Symptom Score: Congestion, Median (Day 8): −14.29%
- Percent Change from Baseline in AM and PM Combined Nasal Symptom Score: Itchy Nose, LS Mean (Day 8): −28.16%
- Percent Change from Baseline in AM and PM Combined Nasal Symptom Score: Itchy Nose, Mean (Day 8): −27.33%
- Percent Change from Baseline in AM and PM Combined Nasal Symptom Score: Itchy Nose, Median (Day 8): −30.22%
- Percent Change from Baseline in AM and PM Combined Nasal Symptom Score: Runny Nose, LS Mean (Day 8): −11.82%
- Percent Change from Baseline in AM and PM Combined Nasal Symptom Score: Runny Nose, Mean (Day 8): −12.38%
- Percent Change from Baseline in AM and PM Combined Nasal Symptom Score: Runny Nose, Median (Day 8): −14.29%
- Percent Change from Baseline in AM and PM Combined Nasal Symptom Score: Sneezing, LS Mean (Day 8): −28.16%
- Percent Change from Baseline in AM and PM Combined Nasal Symptom Score: Sneezing, Mean (Day 8): −26.04%
- Percent Change from Baseline in AM and PM Combined Nasal Symptom Score: Sneezing, Median (Day 8): −31.03%
